We go through three compounds from patent publication US11191768B2, “Histone acetyltransferase activators and uses thereof” (The Trustees of Columbia University in the City of New York, priority 2014, dated 2021).

The conditions of series [1]: cited from earlier work.
The test system of series [2] is YAC128 mice. Put plainly: Accelerating rotarod in the YAC128 Huntington disease model. The series is classed as in vivo. As to conditions: YF2 5 mg/kg i.p. daily from age 2 months. The method, then:
HAT activator YF2 (U.S. patent application Ser. No. 13/493,490; herein incorporated by reference in its entirety) was tested in the YAC128 Huntington disease model. Animals were treated with YF2 (5 mg/kg, i.p, daily) or vehicle, starting at the age of 2 months.
(In general: The rotarod test checks motor coordination on a turning rod.)

Consider `CCOc1ccccc1C(=O)Nc1ccc(Cl)c(C(F)(F)F)c1` [CTB], for which, in series [1], the Solubility result is “insoluble”. With `CCOc1cccc(OCCN(C)C)c1C(=O)Nc1ccc(Cl)c(C(F)(F)F)c1` [YF2], the “Rotarod performance of YF2-treated YAC128 mice versus WT mice” value in series [2] (female mice, 6 months of age, vs WT+YF2 p=0.12734, vs WT+vehicle p=0.1690) is on record as “significance was lost”; in series [2] (male mice, 4 month old, vs WT+YF2 p=0.1946, vs WT+vehicle p=0.0792), “significance was lost”.

Consider `CCCCCCCCCCCCCCCc1cccc(OCC)c1C(=O)Nc1ccc(Cl)c(C(F)(F)F)c1` [CTPB], for which the Solubility result in series [1] was “insoluble”.
